Starred links: 1 amine or outer side, 2 acyl side, 3 side chain; linkers in the order of their positions; H or OH if unused. Positions of bridges follow the written chain, without caps; N, C: chain ends. Non-standard residues stand in square brackets, D forms with d. Residues, ends and D or L forms follow the SMILES beside them. Groups on a side chain read outwards from the residue. *: point of attachment. C20 diacid = O=C(O)CCCCCCCCCCCCCCCCCCC(=O)*; γGlu = O=C(O)[C@H](CCC(=O)[*:2])N[*:1]; Palmitoyl = CCCCCCCCCCCCCCCC(=O)*; AEEA = NCCOCCOCC(=O)O

The data set can be described thus: in vivo. Set-up: species or system Sprague-Dawley rats. As to conditions: rat, iv, 0.033 mg/kg. The method, boiled down:
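Peptide plasma levels measured by UPLC-MS/MS (C18, product-ion monitoring) after protein precipitation or WCX SPE, calibrated in K2EDTA/protease-inhibitor rat plasma. Dosing in non-fasted male Sprague-Dawley rats (n=3): 0.033 mg/kg over 1 h by IV or SC infusion, or 0.3 mg/kg SC bolus; sampling up to 48 h.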

As a reminder, the Vd is the apparent volume that relates the amount in the body to the concentration in plasma or blood. A high value points to wide distribution into tissue. For orientation: clearance means the volume of plasma or blood freed of the substance per unit of time. Low values mean a low capacity for elimination, high ones a high capacity for elimination. As usually defined, the half-life is the time in which the quantity being followed falls by half. Lower therefore signals rapid decline. Consider `CCCCCCCCCCCCCCCC(=O)N[C@@H](CCC(=O)N[C@@H](CCC(=O)N[C@@H](CCC(=O)NCCOCCOCC(=O)NCCOCCOCC(=O)N[C@@H](CCC(=O)NCCCC[C@H](NC(=O)[C@H](CCC(=O)O)NC(=O)[C@H](CC(N)=O)NC(=O)[C@H](C)NC(=O)[C@H](CC(C)C)NC(=O)[C@H](CCCNC(=N)N)NC(=O)[C@H](CCC(N)=O)NC(=O)[C@@H](NC(=O)[C@H](C)NC(=O)[C@@H]1CSSC[C@H](NC(=O)[C@@H](N)CO)C(=O)N[C@@H](CC(N)=O)C(=O)N[C@@H]([C@@H](C)O)C(=O)N[C@@H](CO)C(=O)N[C@@H]([C@@H](C)O)C(=O)N1)[C@@H](C)O)C(=O)N[C@@H](Cc1c[nH]cn1)C(=O)N[C@@H](CCCCN)C(=O)N[C@@H](CO)C(=O)N[C@@H](CO)C(=O)N[C@@H](CC(N)=O)C(=O)N[C@@H](CC(N)=O)C(=O)N[C@@H](Cc1ccccc1)C(=O)NCC(=O)N1CCC[C@H]1C(=O)N[C@H](C(=O)N[C@@H](CC(C)C)C(=O)N1CCC[C@H]1C(=O)N1CCC[C@H]1C(=O)N[C@H](C(=O)N[C@@H](CCCCN)C(=O)N[C@H](C(=O)NCC(=O)N[C@@H](CO)C(=O)N[C@@H](CCC(=O)O)C(=O)N[C@H](C(=O)N[C@@H](Cc1ccc(O)cc1)C(N)=O)[C@@H](C)O)C(C)C)[C@@H](C)O)[C@@H](C)CC)C(=O)O)C(=O)O)C(=O)O)C(=O)O` [Compound A19] (H-SCNTSTCATQRLANEK([γGlu-AEEA-AEEA-γGlu-γGlu-γGlu-Palmitoyl])HKSSNNFGPILPPTKVGSETY-NH2; disulfide 2-7; N-terminus assumed), for which the volume of distribution (Vd) amounted to 0.136 L/kg, the clearance was determined as 0.15 mL/min/kg and the half-life is 11.5 h.
The like results for `CC[C@H](C)[C@H](NC(=O)[C@@H]1CCCN1C(=O)CNC(=O)[C@H](Cc1ccccc1)NC(=O)[C@H](CC(N)=O)NC(=O)[C@H](CC(N)=O)NC(=O)[C@H](CO)NC(=O)[C@H](CO)NC(=O)[C@H](CCCCN)NC(=O)[C@H](Cc1c[nH]cn1)NC(=O)[C@H](CC(C)C)NC(=O)[C@@H](CCCCNC(=O)CC[C@H](NC(=O)CC[C@H](NC(=O)CCCCCCCCCCCCCCCCCCC(=O)O)C(=O)O)C(=O)O)NC(=O)[C@H](CC(N)=O)NC(=O)[C@H](C)NC(=O)[C@H](CC(C)C)NC(=O)[C@H](CCCNC(=N)N)NC(=O)[C@H](CCC(N)=O)NC(=O)[C@@H](NC(=O)[C@H](C)NC(=O)[C@@H]1CSSC[C@H](NC(=O)[C@@H](N)CO)C(=O)N[C@@H](CC(N)=O)C(=O)N[C@@H]([C@@H](C)O)C(=O)N[C@@H](CO)C(=O)N[C@@H]([C@@H](C)O)C(=O)N1)[C@@H](C)O)C(=O)N[C@@H](CC(C)C)C(=O)N1CCC[C@H]1C(=O)N1CCC[C@H]1C(=O)N[C@H](C(=O)N[C@@H](CCCCN)C(=O)N[C@H](C(=O)NCC(=O)N[C@@H](CO)C(=O)N[C@@H](CCC(=O)O)C(=O)N[C@H](C(=O)N[C@@H](Cc1ccc(O)cc1)C(N)=O)[C@@H](C)O)C(C)C)[C@@H](C)O` [Compound A97] (H-SCNTSTCATQRLAN[dK]([γGlu-γGlu-C20 diacid])LHKSSNNFGPILPPTKVGSETY-NH2; disulfide 2-7) were, in that order, 0.0995 L/kg, 0.0604 mL/min/kg and 21 h.

(Values after patent US12018059B2, “Human amylin analog polypeptides and methods of use” (Intarcia Therapeutics, Inc., priority 2018, dated 2024).)
